Measured values reported in patent publication US8158656B2, “2-indolinone derivatives as multi-target protein kinase inhibitors and histone deacetylase inhibitors” (Shenzhen Chipscreen Biosciences Ltd., priority 2008, dated 2012).

Legend:
[1] = test system: Mo7e cells (SCF dependent); assay: c-Kit ligand (SCF) dependent cell proliferation; assay type: cell-based; details: SCF 50 ng/ml, 72 hours, MTS
Protocol: SCF dependent cell proliferation:
Mo7e cells (SCF dependent) were plated into 96-well plates at 15000 per well and incubated in 1640 medium with 10% FBS and SCF (50 ng/ml) for 24 hours. Compounds were added and incubated for 72 hours at 37° C. in CO2 incubator. The effects on proliferation were determined by addition of MTS reagent (Promega) according to the instruction, incubation for 2 hours at 37° C. in CO2 incubator, and record the absorbance at 490 nm using an ELISA plate reader.

HCT-8 = assay: Tumor cell proliferation (MTS), HCT-8; assay type: cell-based; details: Homo sapiens, HCT-8, 72 hours
Protocol: (§1) Measurement of in vivo cell proliferation:
(§2) Tumor cells were trypsinized and plated into 96-well plates at 3,000 per well and incubated in complete medium with 10% FBS for 24 hours. Compounds were added over a final concentration range of 100 μmol/L to 100 nmol/L in 0.1% DMSO and incubated for 72 hours in complete medium. The effects on proliferation were determined by addition of MTS reagent (Promega) according to the instruction, incubation for 2 hours at 37° C. in CO2 incubator, and record the absorbance at 490 nm using an ELISA plate reader.

c-Kit = biological target: T1, c-Kit (Homo sapiens, UniProt P10721); assay: c-KIT kinase ELISA bioassay; assay type: biochemical; details: ELISA kinase assay, 20 μM ATP
T1 construct: purchased Cell Signaling
T1 sequence (P10721 26-976): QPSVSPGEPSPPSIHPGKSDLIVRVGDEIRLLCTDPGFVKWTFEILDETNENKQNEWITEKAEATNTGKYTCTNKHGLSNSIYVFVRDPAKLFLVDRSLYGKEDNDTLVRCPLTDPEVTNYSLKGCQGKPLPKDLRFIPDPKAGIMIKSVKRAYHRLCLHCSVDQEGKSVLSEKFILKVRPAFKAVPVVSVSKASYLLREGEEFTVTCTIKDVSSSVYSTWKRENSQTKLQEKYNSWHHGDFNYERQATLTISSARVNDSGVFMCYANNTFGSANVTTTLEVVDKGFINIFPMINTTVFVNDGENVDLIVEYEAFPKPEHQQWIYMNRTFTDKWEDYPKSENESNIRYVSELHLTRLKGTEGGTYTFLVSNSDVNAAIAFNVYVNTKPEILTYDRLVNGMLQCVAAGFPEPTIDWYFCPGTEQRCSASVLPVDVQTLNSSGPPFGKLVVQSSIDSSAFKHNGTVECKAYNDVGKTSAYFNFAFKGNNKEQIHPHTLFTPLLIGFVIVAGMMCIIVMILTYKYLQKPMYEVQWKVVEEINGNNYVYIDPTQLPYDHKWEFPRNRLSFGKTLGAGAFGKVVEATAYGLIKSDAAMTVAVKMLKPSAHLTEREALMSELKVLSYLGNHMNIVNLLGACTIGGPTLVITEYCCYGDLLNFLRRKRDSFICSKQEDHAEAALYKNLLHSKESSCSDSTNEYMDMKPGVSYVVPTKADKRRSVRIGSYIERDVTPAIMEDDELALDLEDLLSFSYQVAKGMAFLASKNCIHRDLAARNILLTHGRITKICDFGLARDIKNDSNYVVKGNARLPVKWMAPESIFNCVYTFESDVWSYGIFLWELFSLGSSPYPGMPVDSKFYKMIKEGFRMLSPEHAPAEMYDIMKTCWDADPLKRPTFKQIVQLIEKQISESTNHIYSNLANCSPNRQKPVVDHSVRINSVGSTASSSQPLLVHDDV
Protocol: This assay is used to measure in vitro kinase activity of c-KIT in an ELISA assay.
• 1. Streptavidin coated, 96-well, white plate • 2. Phospho-Tyrosine Monoclonal Antibody (P-Tyr-100) (Cell Signaling) • 3. HRP-labeled anti-mouse IgG (Upstate) • 4. HTScan™ Tyrosine Kinase Buffer (4×) • 5. DTT (1000×. 1.25 M) • 6. ATP (10 mM) • 7. KDR (Tyr996) Biotinylated Peptide Substrate (Cell Signaling) • 8. c-KIT Kinase (recombinant, human) (Cell Signaling) • 9. Wash Buffer: 1× PBS, 0.05% Tween-20 (PBS/T) • 10. Bovine Serum Albumin (BSA) • 11. Stop Buffer: 50 mM EDTA pH 8 • 12. Enhanced chemiluminescence (ECL) (Amersham) Procedure for performing the assay in 96-well plate: • 1. Add 10 μl 10 mM ATP to 1.25 ml 6 μM substrate peptide. Dilute the mixture with dH20 to 2.5 ml to make 2× ATP/substrate cocktail ([ATP]=40 μM, [substrate]=3 μm). • 2. Immediately transfer enzyme from −80° C. to ice. Allow enzyme to thaw on ice. • 3. Microcentrifuge briefly at 4° C. to bring liquid to the bottom of the vial. Return immediately to ice. • 4. Add 10 μl of DTT (1.25 M) to 2.5 ml of 4× HTScan™ Tyrosine Kinase Buffer (240 mM HEPES pH 7.5, 20 mM MgCl2, 20 mM MnCl2, 12 μM Na3VO4) to make DTT/Kinase buffer. • 5. Transfer 1.25 ml of DTT/Kinase buffer to enzyme tube to make 4× reaction cocktail ([enzyme]=4 ng/μL in 4× reaction cocktail). • 6. Incubate 12.5 μl of the 4× reaction cocktail with 12.5 μl/well of prediluted compound of interest (usually around 10 μM) for 5 minutes at room temperature. • 7. Add 25 μl of 2× ATP/substrate cocktail to 25 μl/well preincubated reaction cocktail/compound. Final Assay Conditions for a 50 μl Reaction: • 60 mM HEPES pH 7.5 • 5 mM MgCl2 • 5 mM MnCl2 • 3 μM Na3VO4 • 1.25 mM DTT • 20 μM ATP • 1.5 μM peptide • 100 ng c-KIT Kinase • 8. Incubate reaction plate at room temperature for 30 minutes. • 9. Add 50 μl/well Stop Buffer (50 mM EDTA, pH 8) to stop the reaction. • 10. Transfer 25 μl of each reaction and 75 μl dH2O/well to a 96-well streptavidincoated plate and incubate at room temperature for 60 minutes. • 11. Wash three times with 200 μl/well PBS/T • 12. Dilute primary antibody, Phospho-Tyrosine Monoclonal Antibody (P-Tyr-100), 1:1000 in PBS/T with 1% BSA. Add 100 μl/well of primary antibody. • 13. Incubate at room temperature for 60 minutes. • 14. Wash three times with 200 μl/well PBS/T • 15. Dilute HRP labeled anti-mouse IgG 1:500 in PBS/T with 1% BSA. Add 100 μl/well diluted antibody. • 16. Incubate at room temperature for 30 minutes. • 17. Wash five times with 200 μl/well PBS/T. • 18. Add 100 μl/well ECL Solution. • 19. Detect luminescence with appropriate Plate Reader. Flt3 Bioassay

Bel-7402 = assay: Tumor cell proliferation (MTS), Bel-7402; assay type: cell-based; details: Homo sapiens, Bel-7402, 72 hours
Protocol: as §1, §2

Ramos = assay: Tumor cell proliferation (MTS), Ramos; assay type: cell-based; details: Homo sapiens, 72 hours
Protocol: as §1, §2

GI50 (HCT-8) [µM]	IC50 (c-Kit) [nM]	GI50 (Bel-7402) [µM]	GI50 (Ramos) [µM]	Compound	GI50 [1] [nM]
> 60	> 1000	> 60	> 60	Cc1[nH]c(/C=N/N=C2\C(=O)Nc3ccc(F)cc32)c(C)c1C(=O)NCCCNc1ccc(C(=O)Nc2ccc(F)cc2N)cn1 [Example 17, N-(2-amino-4-fluorophenyl)-6-(3-(2-(((5-fluoro-2-oxoindolin-3-ylidene)-hydrazono)methyl)-3,5-dimethyl-1H-pyrrole-4-carboxamido)propylamino)nicotinamide]	> 1000
> 60	> 1000	> 60	> 60	Cc1[nH]c(/C=N/N=C2\C(=O)Nc3ccc(F)cc32)c(C)c1C(=O)NCCCCNc1ccc(C(=O)Nc2ccc(F)cc2N)cn1 [Example 20, N-(2-amino-4-fluorophenyl)-6-(4-(2-(((5-fluoro-2-oxoindolin-3-ylidene)-hydrazono)methyl)-3,5-dimethyl-1H-pyrrole-4-carboxamido)butylamino)nicotinamide]	> 1000
> 60	65	> 60	> 60	Cc1[nH]c(/C=C2\C(=O)Nc3ccc(F)cc32)c(C)c1C(=O)NCCCCNc1ccc(C(=O)Nc2ccc(F)cc2N)cn1 [Example 19, (Z)-N-(2-amino-4-fluorophenyl)-6-(4-(2-((5-fluoro-2-oxoindolin-3-ylidene)-methyl)-3,5-dimethyl-1H-pyrrole-4-carboxamido)butylamino)nicotinamide]	42
> 60	534	> 60	> 60	Cc1[nH]c(/C=C2\C(=O)Nc3ccc(F)cc32)c(C)c1C(=O)NCCNc1ccc(C(=O)Nc2ccc(F)cc2N)cn1 [Example 13, (Z)-N-(2-amino-4-fluorophenyl)-6-(2-(2-((5-fluoro-2-oxoindolin-3-ylidene)-methyl)-3,5-dimethyl-1H-pyrrole-4-carboxamido)ethylamino)nicotinamide]	151
> 60	157	> 60	> 60	Cc1[nH]c(/C=C2\C(=O)Nc3ccc(F)cc32)c(C)c1C(=O)NCCNc1ccc(C(=O)Nc2ccccc2N)cn1 [Example 3, (Z)-N-(2-aminophenyl)-6-(2-(2-((5-fluoro-2-oxoindolin-3-ylidene)methyl)-3,5-dimethyl-1H-pyrrole-4-carboxamido)ethylamino)nicotinamide]	126
> 60	> 1000	> 60	> 60	Cc1[nH]c(/C=N/N=C2\C(=O)Nc3ccc(F)cc32)c(C)c1C(=O)NCCNc1ccc(C(=O)Nc2ccc(F)cc2N)cn1 [Example 14, N-(2-amino-4-fluorophenyl)-6-(2-(2-(((5-fluoro-2-oxoindolin-3-ylidene)-hydrazono)methyl)-3,5-dimethyl-1H-pyrrole-4-carboxamido)ethylamino)nicotinamide]	> 1000
> 60	242	> 60	> 60	Cc1[nH]c(/C=C2\C(=O)Nc3ccc(F)cc32)c(C)c1C(=O)NCCCNc1ccc(C(=O)Nc2ccc(F)cc2N)cn1 [Example 16, (Z)-N-(2-amino-4-fluorophenyl)-6-(3-(2-((5-fluoro-2-oxoindolin-3-ylidene)-methyl)-3,5-dimethyl-1H-pyrrole-4-carboxamido)propylamino)nicotinamide]	105
> 60	> 1000	> 60	> 60	Cc1[nH]c(/C=N/N=C2\C(=O)Nc3ccc(F)cc32)c(C)c1C(=O)NCCCNc1ccc(C(=O)Nc2ccccc2N)cn1 [Example 7, N-(2-aminophenyl)-6-(3-(2-(((5-fluoro-2-oxoindolin-3-ylidene)hydrazono)-methyl)-3,5-dimethyl-1H-pyrrole-4-carboxamido)propylamino)nicotinamide]	> 1000
> 60	> 1000	> 60	> 60	Cc1[nH]c(/C=N/N=C2\C(=O)Nc3ccc(F)cc32)c(C)c1C(=O)NCCCCNc1ccc(C(=O)Nc2ccccc2N)cn1 [Example 10, N-(2-aminophenyl)-6-(4-(2-(((5-fluoro-2-oxoindolin-3-ylidene)hydrazono)-methyl)-3,5-dimethyl-1H-pyrrole-4-carboxamido)butylamino)nicotinamide]	> 1000
> 60	> 1000	> 60	> 60	Cc1[nH]c(/C=N/N=C2\C(=O)Nc3ccc(F)cc32)c(C)c1C(=O)NCCNc1ccc(C(=O)Nc2ccccc2N)cn1 [Example 4, N-(2-aminophenyl)-6-(2-(2-(((5-fluoro-2-oxoindolin-3-ylidene)hydrazono)-methyl)-3,5-dimethyl-1H-pyrrole-4-carboxamido)ethylamino)nicotinamide]	> 1000
> 60	23	> 60	> 60	Cc1[nH]c(/C=C2\C(=O)Nc3ccc(F)cc32)c(C)c1C(=O)NCCCCNc1ccc(C(=O)Nc2ccccc2N)cn1 [Example 9, (Z)-N-(2-aminophenyl)-6-(4-(2-((5-fluoro-2-oxoindolin-3-ylidene)methyl)-3,5-dimethyl-1H-pyrrole-4-carboxamido)butylamino)nicotinamide]	32
> 60	76	> 60	> 60	Cc1[nH]c(/C=C2\C(=O)Nc3ccc(F)cc32)c(C)c1C(=O)NCCCNc1ccc(C(=O)Nc2ccccc2N)cn1 [Example 6, (Z)-N-(2-aminophenyl)-6-(3-(2-((5-fluoro-2-oxoindolin-3-ylidene)methyl)-3,5-dimethyl-1H-pyrrole-4-carboxamido)propylamino)nicotinamide]	46
